Data set [1] has as its system IDH2 mutant cell line TF1-R140Q. Put plainly: Hemoglobinization / EPO induced differentiation assay with flow cytometry. Format: cell-based. Conditions: EPO induction 7 days. As to the method:
(§1) Cells were plated at a density of 0.2e^6 cells/ml of 2 ml culture in 6 well plates.
FIG. 91 provides the dosing schedules used in this study.
(§2) TF1 cells were cultured in the following media: RPMI containing HEPES and L-glutamine, 10% FBS, Pen/Strep, G418 (final conc 500 μg/ml), and GM-CSF (final conc 5 ng/ml). The cells were cultured for 7 days, with or without compound treatment as described in FIG. 91.
(§3) For the hemoglobinization assay, TF1 cells were washed three times with PBS to remove residual GM-CSF then plated at (100,000 cells/ml). Cells were then induced to differentiate using EPO (2 unit/ml). Induction continued for 7 days with changing media on 4th day and adding media with fresh EPO. The cell pellets were collected and imaged for hemoglobinization content (as a surrogate for differentiation into blood lineage). Cells were pelleted, washed, stained with a panel of antibodies and analyzed by flow cytometry, using the following antibodies: […]
(In general: Flow cytometry measures light scatter and fluorescence of single cells or particles in a stream.)

A short description of data set [2]: Dynamic vapor sorption (DVS) of solid forms. The format is physicochemical. Conditions: relative humidity increased from about 0% to about 90% RH. On the procedure:
In certain embodiments, Form A is characterized by dynamic vapor sorption analysis. […] In certain embodiments, Form A comprises less than 0.1% water as determined in a coulometric Karl Fischer (KF) titrator equipped with an oven sample processor set at 225° C.
In certain embodiments, Form B is characterized by dynamic vapor sorption analysis. […] In certain embodiments, Form B comprises less than 0.1% water as determined in a coulometric Karl Fischer (KF) titrator equipped with an oven sample processor set at 225° C.
In certain embodiments, Form C is characterized by dynamic vapor sorption analysis. […] In certain embodiments, Form C comprises less than 0.1% water as determined in a coulometric Karl Fischer (KF) titrator equipped with an oven sample processor set at 225° C.

A short description of another data set: physchem. Format: physicochemical. The source says: “Compound 1, Form C” or “Form C” or “API”” in the Examples herein refers to polymorph Form C of 2-(4-chlorophenyl)-N-((2-(2,6-dioxopiperidin-3-yl)-1-oxoisoindolin-5-yl)methyl)-2,2-difluoroacetamide. “Compound 1, Form A” or “Form A” in the Examples herein refers to polymorph Form A of 2-(4-chlorophenyl)-N-((2-(2,6-dioxopiperidin-3-yl)-1-oxoisoindolin-5-yl)methyl)-2,2-difluoroacetamide.

The conditions of data set [3]: patients, literature value; read-out: clinical Cmax; cited from earlier work.
The subject of the next data set is AML cell lines. Description: In vitro combination studies, CellTitre-Glo cell viability (Bliss, Loewe, HSA, CES synergy analysis). Particulars: FLT3 and JAK inhibitors in combination with Compound 1 in MOLM-13 and NOMO-1 cell lines.
Data set [4] deals with IL3 independent JAK2 V617F BaF3 cells. Description: Combination studies with JAK2 inhibitors in engineered BaF3 cells, CellTitre-Glo after 3 days. The format is cell-based. Conditions: compared to the IL3 dependent lines. As to the method: Everolimus was included as a control. The cell viability was then measured by CellTitre-Glo® after 3 days.
In data set [5] the test system is JAK2V617F AML cell lines HEL, SET-2, MUTZ-8. Put plainly: Combination studies with JAK2 inhibitors in AML cell lines, CellTitre-Glo after 3 days. The format is cell-based.
Protocol: The cell viability was measured by CellTitre-Glo® after 3 days as described elsewhere herein.
For the next data set, the system named is OCT-AML-3. Put plainly: In vitro combination studies, CellTitre-Glo cell viability. Conditions: OCI-AML-3; in combination with Compound 1.
The subject of the next data set is NOMO-1. The description is as above. Conditions: NOMO-1; in combination with Compound 1.
The test system of a further data set is KG-1. The data set is described as above. Conditions: KG-1; in combination with Compound 1.
The subject of a further data set is MV-4-11. Described as above. Particulars: MV-4-11; in combination with Compound 1.
Another data set deals with MOLM-13. The data set is described as above. Particulars: MOLM-13; in combination with Compound 1.
The subject of a further data set is HNT-34. The data set is described as above. Particulars: HNT-34; in combination with Compound 1.
The test system of a further data set is OCI-AML-2. Described as above. Particulars: OCI-AML-2; in combination with Compound 1.
The next data set deals with HL-60. The data set is described as above. Conditions: HL-60; in combination with Compound 1.
A further data set concerns F-36-P. The description is as above. Conditions: F-36-P; in combination with Compound 1.
The subject of another data set is ML-2. The description is as above. Conditions: ML-2; in combination with Compound 1.
Data set [6] in a line: GA0087 PDX model ex vivo 3D methylcellulose CellTiter-Glo cell viability assay (IC50, matrix combination, Combination Index).
Protocol: (§4) Materials and Methods: The stomach cancer cell line GA0087 was used in this study. […] Culture media was purchased from GIBCO or Sigma, USA.
(§5) Everolimus was obtained from Selleck. Cisplatin was used as a reference drug, and was obtained from Hospira Australia pty Ltd.
(§6) PDX tumor models were maintained at Crownbio HuPrime animal facility. Tumor growth was monitored weekly. Tumor volumes were measured in two dimensions using a caliper, and the volume was expressed in mm^3 using the formula: V=0.5 a×b^2 where a and b are the long and short diameters of the tumor, respectively. • 2. Mouse xenografts at tumor volume around 800 mm^3 were housed with sterile surgical tools and tumor tissue was minced into tiny pieces with scissors in small amount of PBS on a new tissue culture plate. • 3. The cell suspension was filtered through Falcon cell strainer. The nylon mesh was washed 3-5 times with PBS. • 4. The cell suspension was centrifuged at 1000 rpm for 5 minutes and the pellet was washed with PBS and centrifuged again. • 5. Red blood cells were removed using red blood cell lysis buffer. • 6. The cell suspension was centrifuged at 1000 rpm for 5 minutes and the pellet was washed with PBS and centrifuged again. • 7. The cell pallet was re-suspended with appropriate cell culture media for different cells. • 8. Cells were counted with Countstar by trypan blue exclusion.
(§7) Day −1: Cell Plating • 1. The cells were harvested during the logarithmic growth period. The harvested cells were cultured with appropriate cell media and centrifuged at 1000 rpm for 3 minutes. […] (Cell concentration was adjusted according to the data base or density optimization assay). • 3. 3.5 mL of cell suspension was mixed with 6.5 mL of 1% methylcellulose. […] 90 μL cell suspensions were added to 96-well plates according to plate map with final cell density. Two duplicate plates were set up: one for day 0 reading (T0) and the other was cultured in incubator for reading at the end point.
(§8) Day 0: T0 Plate Reading and Compound Treatment • 5.10 μL culture medium was added to T0 plate in each well for T0 reading. • 6.100 μl CellTiter-Glo® Reagent was added to each well. • 7. The contents were mixed for 2 minutes on an orbital shaker to facilitate cell lysis. • 8. The plates were allowed to incubate at room temperature for 10 minutes to stabilize luminescent signal. • 9. A backseal black sticker was placed to the bottom of each plate. • 10. The luminescence was read using EnVision Multi Label Reader. • 11.
(§9) The solutions were stored at −20° C. […] The response score was calculated by normalizing to DMSO control. The combination index (CI) was calculated using Chou and Talalay method, wherein a CI of less than 1 indicates synergy. Cisplatin was used as control in the single compound dose response, but was not included in the combination test.
(§10) After drug incubation, pictures for representative wells were taken using a phase contrast microscope. • 13. 100 μL CellTiter-Glo® Reagent was added to each well. • 14. Contents were mixed for 2 minutes on an orbital shaker to facilitate cell lysis. • 15. The plates were allowed to incubate at room temperature for 10 minutes to stabilize luminescent signal. • 16. Backseal black sticker was placed to the bottom of each plate. • 17. Luminescence was recorded using EnVision Multi Label Reader.
(§11) In order to calculate IC50, a dose-response curve was fitted using nonlinear regression model with a sigmoidal dose response. The formula of surviving rate is shown below, and the IC50 was automatically produced by GraphPad Prism 5.0.
(§12) The surviving rate (%)=(LumTest article−LumMedium control)/(LumNone treated−LumMedium control)×100%.
Data set [7] relates to stomach cancer cell line GA0087. The data set is described as above.
Protocol: as §4, §5, §6, §7, §8, §9, §10, §11, §12
For data set [8], the system named is IDH2 mutant cell line TF1-R140Q. Description: Proliferation (total, HSC and progenitor cell count) in the TF1 assay. Format: cell-based. As to the method: as §1, §2, §3
Data set [9] concerns GSPT1 and mTORC1 effectors in BON cells. Description: Western blot of BON cell lysates after 120 h treatment. The format is cell-based. As to the method: BON cells were cultured in DMEM: F12K media containing 10% fetal bovine serum and penicillin/streptomycin antibiotics. […] Cells were harvested and probed with antibodies for western blots and imaged using a Li-Cor Odyssey imaging system. All total and phosphorylated antibodies were obtained from Cell Signaling Technology.
On the technique in general: Immunoblotting shows a protein as a band on a membrane.

For data set [10], the system named is GSPT1 expression, mTOR activation, Mcl-1 expression and Caspase-3 cleavage in AML cells. Description: Immunoblot analysis of AML cells treated with Compound 1 and everolimus. The format is cell-based. The source says: Whole cell extracts were collected and subjected to immunoblot analysis.
Data set [11] deals with human QGP1 pancreatic somatostatinoma xenografts.
Protocol: Treatment began on Day 1 in nine groups of mice (n=10) with established subcutaneous QGP1 tumors. […] Tumors were measured using calipers twice each week to the end of the study on Day 52. Three tumors at or near the group median tumor volume 2000 mm^3 endpoint were sampled from each group.
Treatment efficacy was based on tumor growth inhibition (TGI), defined as the difference between the final (Day 52) median tumor volumes (MTVs) of treated and control mice. The results were analyzed utilizing the Mann-Whitney U-test, and were deemed statistically significant at P≤0.05. Drug tolerability was assessed by body weight measurements and by frequent observation of treated animals.
For data set [12], the system named is primary human tumor xenograft model GA0087. Put plainly: HuPrime gastric cancer xenograft GA0087 model, in vivo efficacy. Particulars: single agent, 1.25 mg/kg and 5 mg/kg. The arrangement: species or system female BALB/c nude mice. The source says: Tumor fragments from stock mice were harvested and used for inoculation into mice. Each mouse was inoculated subcutaneously at the right flank with primary human tumor xenograft model GA0087 tumor fragment (P7, 2-3 mm in diameter) for tumor development. […] After tumor inoculation, the animals were checked daily for morbidity and mortality. At the time of routine monitoring, the animals were checked for any effects of tumor growth and treatments on normal behavior such as mobility, food and water consumption, body weight gain/loss, eye/hair matting and any other abnormal effect. Death of euthanized mouse was recorded. All groups were terminated on Day 40. Three tumors in each group, with tumor volume near median of each group were collected. Plasma of the same mice were collected. For comparison among three or more groups, one-way ANOVA was performed followed by multiple comparison procedures. All data were analyzed using SPSS 18.0. P values <0.05 is considered to be statistically significant.

Setting [13] is: read-out: Absolute IC50, GA0087-1st experiment.
[14] abbreviates: read-out: Absolute IC50, GA0087-2nd experiment.

Read-outs that look alike come from different tables or passages of the source.

In general, Cmax refers to the maximum level reached in the sampled fluid or tissue. Broadly, the IC50 is the midpoint of a concentration-inhibition curve.

Regarding `Nc1nc(Nc2ccnc(C(F)(F)F)c2)nc(-c2cccc(C(F)(F)F)n2)n1` [Compound 2, 6-(6-(trifluoromethyl)pyridin-2-yl)-N^2-(2-(trifluoromethyl)pyridin-4-yl)-1,3,5-triazine-2,4-diamine], in data set [1], the hemoglobin expression result is given as “increase in hemoglobin expression”.

As for `O=C1CCC(N2Cc3cc(CNC(=O)C(F)(F)c4ccc(Cl)cc4)ccc3C2=O)C(=O)N1` (stereo not shown) [Form A, 2-(4-chlorophenyl)-N-((2-(2,6-dioxopiperidin-3-yl)-1-oxoisoindolin-5-yl)methyl)-2,2-difluoroacetamide], the “water uptake (DVS)” value in [2] is listed as “about 1.2 % w/w”.

Turning to `O=C1CCC(N2Cc3cc(CNC(=O)C(F)(F)c4ccc(Cl)cc4)ccc3C2=O)C(=O)N1` (stereo not shown) [Form B, 2-(4-chlorophenyl)-N-((2-(2,6-dioxopiperidin-3-yl)-1-oxoisoindolin-5-yl)methyl)-2,2-difluoroacetamide], the “water uptake (DVS)” value in [2] was “about 1.4 % w/w”.

Regarding `O=C1CCC(N2Cc3cc(CNC(=O)C(F)(F)c4ccc(Cl)cc4)ccc3C2=O)C(=O)N1` (stereo not shown) [Form C, 2-(4-chlorophenyl)-N-((2-(2,6-dioxopiperidin-3-yl)-1-oxoisoindolin-5-yl)methyl)-2,2-difluoroacetamide], the “water uptake (DVS)” value in [2] is “about 0.6 % w/w”. Besides, the “thermodynamic stability among the crystal forms” value in “physchem” is “most thermodynamically stable anhydrate”.

Take `C[C@H](Nc1cc(-c2cnn(C)c2)cc(Nc2cnccn2)n1)c1ccc(F)cc1` [NS-018]: the Cmax in [3] is 2570 nM. Also, in the data set on AML cell lines, the Synergy result is on record as “Yes”. The single agent sensitivity result in data set [4] is recorded as “more sensitive”. The “cell viability, single agent” value in data set [5] is “inhibit cell viability”.

As for `FC(F)(F)c1ccc(CNc2ccc(Cc3c[nH]c4ncc(Cl)cc34)cn2)cn1` [Pexidartinib], the “Synergy analysis for combinations with Compound 1” value (shortened to “Synergy analysis for combinations”) in the data set with OCT-AML-3 was “No”; in the data set on NOMO-1 it was “No”; in the data set on KG-1 it was “No”; in the data set on MV-4-11, “Yes”; in the data set with MOLM-13, “Yes”; in the data set with HNT-34 it was “No”. Besides, the “Synergy analysis for combinations” value in the data set with OCI-AML-2, with HL-60, in the data set with F-36-P and in the data set on ML-2 was “No” throughout. In addition, the Synergy entry in the data set with AML cell lines is on record as “Yes”.

Take `N.N.[Cl][Pt][Cl]` [cisplatin]: the IC50 turned out to be 3.35 µM in [6] (setting [13]); 3.53 µM in data set [6] (setting [14]); 3.17 µM in data set [6] (read-out: Relative IC50, GA0087-1st experiment); 3.3 µM in [6] (read-out: Relative IC50, GA0087-2nd experiment). Besides, the “Maximal Inhibition” value in [7] (GA0087-1st experiment) came out at 98.73%; in [7] (GA0087-2nd experiment) it was 98.48%.

For `CC(C)(O)CNc1nc(Nc2ccnc(C(F)(F)F)c2)nc(-c2cccc(C(F)(F)F)n2)n1` [enasidenib, reference compound], the “proliferation (total, HSC and progenitor cell count)” value in [8] is listed as “mild growth promoting effect”. In addition, the hemoglobin expression result in [1] is “increase in hemoglobin expression”.

For the compound `CO[C@H]1C[C@@H]2CC[C@@H](C)[C@@](O)(O2)C(=O)C(=O)N2CCCC[C@H]2C(=O)O[C@H]([C@H](C)C[C@@H]2CC[C@@H](OCCO)[C@H](OC)C2)CC(=O)[C@H](C)/C=C(\C)[C@@H](O)[C@@H](OC)C(=O)[C@H](C)C[C@H](C)/C=C/C=C/C=C/1C` [everolimus, reference compound], the “Synergy analysis for combinations” value with OCT-AML-3 was “Yes”; with NOMO-1, “No”; in the data set on KG-1 it was “No”; with MV-4-11 it was “Yes”; with MOLM-13, “Yes”; in the data set with HNT-34 it was “No”. The “Synergy analysis for combinations” value in the data set with OCI-AML-2 is given as “Yes”; in the data set with HL-60, “No”; in the data set on F-36-P it was “Yes”; in the data set on ML-2, “Yes”. Moreover, the IC50 came to 0.0061 µM in data set [6] (setting [13]) and 0.0075 µM in data set [6] (setting [14]). Also, the “Maximal Inhibition” value in [7] (GA0087-1st experiment) is 73.15%; in [7] (GA0087-2nd experiment), 72.80%. Moreover, the “effect on mTORC1 effectors (p4EBP1, phosphorylation of S6)” value in data set [9] was “dramatically decreased phosphorylation of S6 and phosphorylation of 4EBP1”. For the same compound, in data set [4], the single agent sensitivity result is on record as “more sensitive”. The “GSPT1 expression/degradation, Mcl-1 loss, Caspase-3 cleavage” value in [10] is given as “minimal effect”. Also, the “activation of the mTOR pathway (phosphorylation of S6K1 and 4E-BP1)” value in [10] is given as “significantly blocked the activation of the mTOR pathway”. Besides, the tumor growth inhibition is given as 41% in data set [11] (3 mg/kg i.p. qd x 21, Day 52) and 39% in data set [11] (10 mg/kg i.p. qd x 21, Day 52). For the same compound, the anti-tumor activity entry in data set [12] is given as “moderate anti-tumor activity”.

`N#CCNC(=O)c1ccc(-c2ccnc(Nc3ccc(N4CCOCC4)cc3)n2)cc1` [momelotinib, reference compound]: in the data set on AML cell lines, the Synergy result is on record as “Yes”. The single agent sensitivity result in [4] is on record as “more sensitive”.

`N#CC[C@H](C1CCCC1)n1cc(-c2ncnc3[nH]ccc23)cn1` [ruxolitinib]: the Cmax in data set [3] is 500 to 1000 nM.

Source of the values: US20190030018A1 (Celgene Corporation, priority 2017, published 2019).
